The record followed here is patent US20140057915A1, “KINASE INHIBITORS” (TOPIVERT PHARMA LIMITED, priority 2012, published 2014).

In data set [1] the target is T1, GSK3α (Homo sapiens, UniProt P49840). Put plainly: GSK 3α enzyme inhibition (FRET), Method 1. The data set is classed as biochemical. As to conditions: Table 4a1. An outline of the steps: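 Steps: preincubate GSK3α with compound 2 hr at room temperature; start reaction with peptide and ATP for 1 hr; develop with site-specific protease for 1 hr; measure fluorescence and take the coumarin/fluorescein ratio as the phosphorylation level.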

For data set [2], the system named is d-U937 cells. Kind of data set: Cell viability: MTT assay. It counts as cell-based, human. Particulars: 1 μg/mL. An outline of the steps:
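Differentiated U937 cells exposed to compound at 1 or 10 μg/mL, either 4 h in 5% FCS or 24 h in 10% FCS RPMI1640. MTT then added for 1 h, formazan dissolved in DMSO and read at 550 nm. Viability loss given as % versus 0.5% DMSO vehicle; apparent gains appear negative.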

Data set [3] relates to HRV16 in MRC5 cells. Kind of data set: HRV16 induced CPE in MRC5 cells. It counts as cell-based. Particulars: Human rhinovirus sp., HRV-16. Here is the method:
(j) Assessment of HRV16 Induced CPE in MRC5 Cells
MRC-5 cells are infected with HRV16 at an MOI of 1n DMEM containing 5% FCS and 1.5 mM magnesium chloride, followed by incubation for 1 hr at 33° C. to promote adsorption. The supernatants are aspirated, and then fresh media added followed by incubation for 4 days. Where appropriate, cells are pre-incubated with compound or DMSO for 2 hr, and the compounds and DMSO added again after washout of the virus.
After washing, 1% SDS in distilled water (100 μL) is added to each well, and the plates are shaken lightly for 1-2 hr prior to reading the absorbance at 660 nm. The percentage inhibition for each well is calculated. The IC50 value is calculated from the concentration-response curve generated by the serial dilutions of the test compounds.

For data set [4], the system named is PBMC cells. Put plainly: Cell mitosis assay. As to conditions: Homo sapiens, read-out: % Inhibition of mitosis in PBMC cells at 5 μg/mL. The data set is classed as cell-based. The essentials:
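Healthy-donor PBMCs (3 million cells per sample) stimulated with 2% PHA for 48 hr, then exposed 20 hr to varying compound concentrations. Demecolcine (0.1 μg/mL) added 2 hr before collection to arrest cells in metaphase; read by flow cytometry gated on lymphocytes.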

Data set [5] addresses Syk (Homo sapiens, UniProt P43405). Kind of data set: Syk enzyme inhibition (FRET). The data set is classed as biochemical. An outline of the steps:
(§1)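 Enzyme was preincubated with test compound (added as 4, 0.4, 0.04 or 0.004 μg/mL solutions) for 2 hr at RT. FRET peptide (8 μM solution) and ATP solution (800 μM for c-Src, 60 μM for Syk) were then added for 1 hr, followed by 1 hr protease development.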

For data set [6], the target named is T1, GSK3α. Put plainly: GSK 3α enzyme inhibition (FRET), Method 2. The data set is classed as biochemical. Particulars: Table 4a2, different laboratory.
Data set [7] concerns IL-8 release, d-U937 cells. Kind of data set: LPS-induced IL-8 release in d-U937 cells. The data set is classed as cell-based. As to conditions: Homo sapiens, dU937. The essentials:
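IL-8 release after a 4 hr challenge with LPS (0.1 μg/mL, E. coli 0111:B4) following a 2 hr compound pretreatment. Cells were human U937 monocytes differentiated to macrophage-type with PMA 100 ng/mL for 48–72 hr. Relative 50% effective concentration derived from concentration–response data.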

Data set [8] relates to TNFα release, d-U937 cells. Put plainly: LPS-induced TNFα release in d-U937 cells. The data set is classed as cell-based. Particulars: Homo sapiens, dU937; for IC50: Table 4c2, different laboratory, read-out: IC50 Values for Inhibition of Cytokine Release, dU937 cells, TNFα; for EC50: relative to 10 μg/mL BIRB796, Table 4c1, read-out: LPS Induced Release of Cytokine in d-U937 Cells, TNFα REC50. An outline of the steps: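 U937 cells differentiated with PMA (100 ng/mL, 48–72 hr), pre-treated with compound for 2 hr, then stimulated with E. coli LPS (0.1 μg/mL) for 4 hr. Supernatant cytokine measured by sandwich ELISA; inhibition versus vehicle control, REC50 from concentration-response curve.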

The target in data set [9] is cSrc (Homo sapiens, UniProt P12931). Put plainly: c-Src enzyme inhibition (FRET). It counts as biochemical. An outline of the steps:
as §1

Where [10] appears, read: Table 4a2, different laboratory.
Setting [11] is: Table 4c1, read-out: LPS Induced Release of Cytokine in d-U937 Cells, IL-8 IC50.
Setting [12] is: Table 4c2, different laboratory, read-out: IC50 Values for Inhibition of Cytokine Release, dU937 cells, IL-8.

Read-outs that look alike come from different tables or passages of the source.

T1 sequence (P49840 whole entry): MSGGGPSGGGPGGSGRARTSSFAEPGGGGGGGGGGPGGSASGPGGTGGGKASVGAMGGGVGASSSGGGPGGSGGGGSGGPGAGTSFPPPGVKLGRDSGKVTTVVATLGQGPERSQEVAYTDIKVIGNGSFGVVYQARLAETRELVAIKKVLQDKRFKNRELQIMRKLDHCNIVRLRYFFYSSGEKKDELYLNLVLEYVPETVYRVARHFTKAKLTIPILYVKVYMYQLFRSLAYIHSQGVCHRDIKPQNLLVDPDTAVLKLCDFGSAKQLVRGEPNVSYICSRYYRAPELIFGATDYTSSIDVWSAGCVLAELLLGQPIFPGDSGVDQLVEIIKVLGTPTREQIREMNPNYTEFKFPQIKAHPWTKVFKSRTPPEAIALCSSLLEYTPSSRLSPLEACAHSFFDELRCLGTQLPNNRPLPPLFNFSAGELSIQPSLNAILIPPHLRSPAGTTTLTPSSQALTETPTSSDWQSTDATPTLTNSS
Sequence of cSrc (P12931 whole entry): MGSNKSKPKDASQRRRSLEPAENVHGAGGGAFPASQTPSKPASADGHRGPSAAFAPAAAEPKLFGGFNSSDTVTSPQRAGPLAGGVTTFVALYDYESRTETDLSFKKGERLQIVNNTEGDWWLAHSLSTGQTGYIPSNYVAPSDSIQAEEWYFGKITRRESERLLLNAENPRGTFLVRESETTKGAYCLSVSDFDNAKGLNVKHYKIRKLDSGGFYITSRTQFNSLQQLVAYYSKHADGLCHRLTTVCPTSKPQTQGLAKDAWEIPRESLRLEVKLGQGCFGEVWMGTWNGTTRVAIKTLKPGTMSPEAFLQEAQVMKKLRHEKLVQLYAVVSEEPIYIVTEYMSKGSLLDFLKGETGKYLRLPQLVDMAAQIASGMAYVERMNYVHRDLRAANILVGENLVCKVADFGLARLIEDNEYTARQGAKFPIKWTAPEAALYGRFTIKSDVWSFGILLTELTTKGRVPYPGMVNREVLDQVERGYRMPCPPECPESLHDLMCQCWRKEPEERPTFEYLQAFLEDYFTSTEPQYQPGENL

`COc1cc(Nc2cc(Oc3ccc(NC(=O)Nc4cc(C(C)(C)C)nn4-c4ccc(C)cc4)c4ccccc34)ccn2)cc(C(=O)NCCN2CCOCC2)c1` [Example 1, 3-((4-((4-(3-(3-(tert-Butyl)-1-(p-tolyl)-1H-pyrazol-5-yl)ureido)naphthalen-1-yl)oxy)pyridin-2-yl)amino)-5-methoxy-N-(2-morpholinoethyl)benzamide]: the IC50 – broadly, the concentration at which inhibition is half-maximal – in [1] is 2860 nM; in data set [3] it was 2.9 nM; in data set [5] (Table 4a1), 10 nM; in [5] (setting [10]), 66 nM; in [6], 6970 nM; in data set [7] (setting [11]), 1.8 nM. Further, the IC50 in [7] (setting [12]) worked out at 2.8 nM; in data set [8], 2.1 nM; in data set [9] (Table 4a1) it was 5 nM; in data set [9] (setting [10]), 27 nM. For the same compound, in data set [2], the “Cell viability at time point in d-U937 cells, 4 h” value is “−ve (−ve and +ve indicate that the value is below and above respectively, the no significant effect threshold, defined as 30% inhibition at 1 μg/mL at the time point indicated)”. Further, the “Cell viability at time point in d-U937 cells, 24 h” value (from here on “Cell viability at time point … 24 h”) in [2] was “−ve (−ve and +ve indicate that the value is below and above respectively, the no significant effect threshold, defined as 30% inhibition at 1 μg/mL at the time point indicated)”. In addition, in data set [4], the inhibition at 5 µg/mL was found to be 39.3%. Further, in data set [8], the EC50 amounted to 0.7 nM.

For `COc1cc(Nc2nccc(Oc3ccc(NC(=O)Nc4cc(C(C)C)nn4-c4ccc(C)cc4)c4ccccc34)n2)cc(C(=O)NCCN2CCOCC2)c1` [Example 8, 3-((4-((4-(3-(3-Isopropyl-1-(p-tolyl)-1H-pyrazol-5-yl)ureido)naphthalen-1-yl)oxy)pyrimidin-2-yl)amino)-5-methoxy-N-(2-morpholinoethyl)benzamide], the half-maximal inhibitory concentration (IC50) in data set [1] was 7950 nM; in data set [3] it was 5.4 nM; in [5] (Table 4a1), 3 nM; in [5] (setting [10]), 224 nM; in [6] it was ≥ 13200 nM; in [7] (setting [11]), 0.3 nM. Also, the IC50 in data set [7] (setting [12]) is 1.4 nM; in data set [8] it was 1.1 nM; in [9] (Table 4a1), < 1 nM; in [9] (setting [10]) it was 41 nM. Moreover, the “Cell viability at time point in d-U937 cells, 4 h” value in [2] was “−ve (−ve and +ve indicate that the value is below and above respectively, the no significant effect threshold, defined as 30% inhibition at 1 μg/mL at the time point indicated)”. For the same compound, the “Cell viability at time point … 24 h” value in data set [2] is “−ve (−ve and +ve indicate that the value is below and above respectively, the no significant effect threshold, defined as 30% inhibition at 1 μg/mL at the time point indicated)”. Moreover, in [4], the inhibition at 5 µg/mL was 15.3%. The EC50 in data set [8] is 0.8 nM.

For `COc1cc(Nc2nccc(Oc3ccc(NC(=O)Nc4cc(C(F)(F)C(F)(F)F)nn4-c4ccc(C)cc4)c4ccccc34)n2)cc(C(=O)NCCN2CCOCC2)c1` [Example 9], the IC50 in data set [1] came to 8030 nM; in data set [3], 1.7 nM; in data set [6], 6510 nM; in data set [7] (setting [11]), 1.4 nM; in [9] (Table 4a1), 2 nM; in [9] (setting [10]), 21 nM. Also, the “Cell viability at time point in d-U937 cells, 4 h” value in data set [2] is “−ve (−ve and +ve indicate that the value is below and above respectively, the no significant effect threshold, defined as 30% inhibition at 1 μg/mL at the time point indicated)”. The “Cell viability at time point … 24 h” value in data set [2] was “−ve (−ve and +ve indicate that the value is below and above respectively, the no significant effect threshold, defined as 30% inhibition at 1 μg/mL at the time point indicated)”. Besides, the inhibition at 5 µg/mL in data set [4] is 20.7%. In [8], the EC50 turned out to be 0.9 nM.

`COc1ccc(-n2nc(C(C)(C)C)cc2NC(=O)Nc2ccc(Oc3ccnc(Nc4cc(Br)cc(C(N)=O)c4)n3)c3ccccc23)cc1` [Example 42, 3-bromo-5-((4-((4-(3-(3-(tert-butyl)-1-(4-methoxyphenyl)-1H-pyrazol-5-yl)ureido)naphthalen-1-yl)oxy)pyrimidin-2-yl)amino)benzamide]: the 50% inhibitory concentration (IC50) in [1] was > 1390 nM; in [3] it was 2.2 nM; in data set [5] (Table 4a1) it was 67 nM; in data set [7] (setting [11]), 2 nM; in data set [9] (Table 4a1), 20 nM. In addition, the “Cell viability at time point in d-U937 cells, 4 h” value in data set [2] was “−ve (−ve and +ve indicate that the value is below and above respectively, the no significant effect threshold, defined as 30% inhibition at 1 μg/mL at the time point indicated)”. The “Cell viability at time point … 24 h” value in [2] is “−ve (−ve and +ve indicate that the value is below and above respectively, the no significant effect threshold, defined as 30% inhibition at 1 μg/mL at the time point indicated)”. In addition, in data set [4], the inhibition at 5 µg/mL was 12.9%. Moreover, in data set [8], the EC50 amounted to 1.5 nM.

Consider `COc1cc(Nc2nccc(Oc3ccc(NC(=O)Nc4cc(C5(C)CC5)nn4-c4ccc(C)cc4)c4ccccc34)n2)cc(C(=O)NCCN2CCOCC2)c1` [Example 51, 3-methoxy-5-((4-((4-(3-(3-(1-methylcyclopropyl)-1-(p-tolyl)-1H-pyrazol-5-yl)ureido)naphthalen-1-yl)oxy)pyrimidin-2-yl)amino)-N-(2-morpholinoethyl)benzamide], for which the IC50 in [1] is > 13000 nM; in data set [3] it was 1.9 nM; in data set [5] (Table 4a1) it was 649 nM; in data set [7] (setting [11]) it was 0.6 nM; in [9] (Table 4a1) it was < 1 nM. For the same compound, the “Cell viability at time point in d-U937 cells, 4 h” value in [2] was “−ve (−ve and +ve indicate that the value is below and above respectively, the no significant effect threshold, defined as 30% inhibition at 1 μg/mL at the time point indicated)”. Further, the “Cell viability at time point … 24 h” value in [2] was “−ve (−ve and +ve indicate that the value is below and above respectively, the no significant effect threshold, defined as 30% inhibition at 1 μg/mL at the time point indicated)”. In addition, the inhibition at 5 µg/mL in [4] was 20%. The EC50 in data set [8] was determined as 1 nM.

Consider `COc1ccc(-n2nc(C(C)C)cc2NC(=O)Nc2ccc(Oc3ccnc(Nc4cc(OC)cc(C(=O)NCCN5CCOCC5)c4)n3)c3ccccc23)cc1` [Example 53, 3-((4-((4-(3-(3-isopropyl-1-(4-methoxyphenyl)-1H-pyrazol-5-yl)ureido)naphthalen-1-yl)oxy)pyrimidin-2-yl)amino)-5-methoxy-N-(2-morpholinoethyl)benzamide], for which the IC50 in data set [1] was > 13000 nM; in [3], 2 nM; in data set [5] (Table 4a1) it was 3 nM; in [6], 7260 nM; in [7] (setting [11]) it was 1.1 nM; in [8], 0.7 nM. The IC50 in data set [9] (Table 4a1) is < 1 nM; in data set [9] (setting [10]) it was 8 nM. In addition, the “Cell viability at time point in d-U937 cells, 4 h” value in data set [2] was “−ve (−ve and +ve indicate that the value is below and above respectively, the no significant effect threshold, defined as 30% inhibition at 1 μg/mL at the time point indicated)”. In [2], the “Cell viability at time point … 24 h” value is “−ve (−ve and +ve indicate that the value is below and above respectively, the no significant effect threshold, defined as 30% inhibition at 1 μg/mL at the time point indicated)”. Besides, the inhibition at 5 µg/mL in data set [4] came to 39.4%. Further, in data set [8], the EC50 was 0.3 nM.
